Strand notation (5' to 3'): a small letter for the sugar, then the base; units joined by * are phosphorothioate-linked, units joined directly phosphodiester-linked; [ ] holds rarer units or linkages, { } end groups; capitals alone tell only the bases. e = 2'-O-(2-methoxyethyl) (MOE); k = constrained ethyl (cEt); [5mC] = 5-methylcytosine; d = 2'-deoxy (DNA); m = 2'-O-methyl
System: Yap1 mRNA
Test: Antisense inhibition of human Yap1 in SNU-449 cells by modified oligonucleotides, single dose (Example 5, RTS36584)
Assay type: cell-based
Conditions: Table 39; SNU-449 cells, 10,000 cells per well, free uptake, 2,000 nM oligonucleotide, approx. 48 hours; RTS36584; normalized to RIBOGREEN; Yap1 mRNA relative to untreated control
Summary of the method: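 Free uptake, 2,000 nM, ~48 h, SNU-449 at 10,000 cells/well. Read-out: qRT-PCR (RTS36584), RIBOGREEN-normalised, expressed as % UTC. Asterisk = oligo hits amplicon region.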

In order of rising “YAP1 (% UTC)” value:
1. 1198378 (kA*dT*dA*dT*dG*dG*dA*dA*dA*dT*dT*kG*eT*k[5mC]*eT*k[5mC]; antisense) [Compound 1198378]  39 % UTC
2. 1095399 (antisense k[5mC]*dA*d[5mC]*dT*dG*dA*dG*dG*dT*dA*dT*kA*eA*k[5mC]*eT*kG) [Compound 1095399]  46 % UTC
3. 1198434 (kT*dG*dT*dA*dA*dT*dA*dT*dT*dG*d[5mC]*kA*eA*kT*e[5mC]*kT) [Compound 1198434]  78 % UTC

Same assay, conditions: Table 40 (separate experiment); SNU-449 cells, 10,000 cells per well, free uptake, 2,000 nM oligonucleotide, approx. 48 hours; RTS36584; normalized to RIBOGREEN; Yap1 mRNA relative to untreated control

In order of falling “YAP1 (% UTC)” value:
1. 1198742 (kT*eT*kT*dT*dA*d[5mC]*dA*dT*dT*dA*dG*dG*eA*eA*k[5mC]*kA; antisense) [Compound 1198742]  143 % UTC
2. 1198767 (kA*eT*kT*d[5mC]*dA*dG*dA*dT*dT*dT*dA*dG*eG*eA*kT*kG; antisense) [Compound 1198767]  65 % UTC

Same assay, conditions: Table 41; SNU-449 cells, 10,000 cells per well, free uptake, 2,000 nM modified oligonucleotide, approximately 48 hours; RTS36584; normalized to RIBOGREEN; Yap1 mRNA relative to untreated control cells

In order of falling “YAP1 (% UTC)” value:
1. 1198775 (k[5mC]*eA*kA*d[5mC]*dT*d[5mC]*dT*dT*dA*dT*dA*dT*eG*eG*kT*kT; antisense) [Compound 1198775]  113 % UTC
2. 1198653 (k[5mC]*kT*dT*dT*dT*dA*d[5mC]*dA*dT*dT*dA*dG*kG*eA*kA*e[5mC]; antisense) [Compound 1198653]  64 % UTC
3. 1198793 (antisense k[5mC]*eT*kT*dT*dA*dA*dA*dG*dT*dG*dT*dA*eT*eG*kT*k[5mC]) [Compound 1198793]  34 % UTC

Same assay, conditions: Table 42 (separate experiment); SNU-449 cells, 10,000 cells per well, free uptake, 2,000 nM modified oligonucleotide, approximately 48 hours; RTS36584; normalized to RIBOGREEN; Yap1 mRNA relative to untreated control cells

In order of falling “YAP1 (% UTC)” value:
1. 1095483 (antisense k[5mC]*kA*d[5mC]*dT*dG*dA*dG*dG*dT*dA*dT*dA*kA*e[5mC]*kT*eG) [Compound 1095483]  101 % UTC
2. 1198228 (kA*kA*dG*d[5mC]*dA*d[5mC]*dT*dT*dT*dT*dA*e[5mC]*eA*eT*kT*kA) [Compound 1198228]  54 % UTC
3. 1198234 (kG*k[5mC]*dT*dT*dT*dG*dG*dA*dA*dG*dA*eT*e[5mC]*eT*kG*kA) [Compound 1198234]  45 % UTC
4. 1198206 (kA*kT*dA*dT*dG*dG*dA*dA*dA*dT*dT*eG*eT*e[5mC]*kT*k[5mC]; antisense) [Compound 1198206]  43 % UTC
5. 1198204 (kT*kG*dG*dA*dA*dA*dT*dT*dG*dT*d[5mC]*eT*e[5mC]*eA*kT*kG; antisense) [Compound 1198204]  31 % UTC

Same assay, conditions: Table 43 experiment; SNU-449 cells, 10,000 cells per well, free uptake, 2,000 nM, approximately 48 hours; RTS36584; Yap1 mRNA normalized to RIBOGREEN, relative to untreated control cells

In order of rising “YAP1 (% UTC)” value:
1. 1095593 (antisense kT*kG*dA*dG*dG*dT*dA*dT*dA*dA*d[5mC]*eT*eG*eG*kG*k[5mC]) [Compound 1095593]  16 % UTC
2. 1198244 (kA*kG*dA*dT*dT*dT*dA*dG*dG*dA*dT*eG*e[5mC]*eA*kT*kG; antisense) [Compound 1198244]  24 % UTC
3. 1198253 (kA*d[5mC]*dT*d[5mC]*dT*dT*dA*dT*dA*dT*dG*eG*eT*eT*kT*kT; antisense) [Compound 1198253]  50 % UTC
4. 1198259 (kA*kA*dT*dA*dT*dT*dG*d[5mC]*dA*dA*dT*e[5mC]*eT*eG*kT*k[5mC]; antisense) [Compound 1198259]  51 % UTC

Same assay, conditions: Table 44 experiment; SNU-449 cells, 10,000 cells per well, free uptake, 2,000 nM, approximately 48 hours; RTS36584; Yap1 mRNA normalized to RIBOGREEN, relative to untreated control cells

In order of rising “YAP1 (% UTC)” value:
1. 1198494 (antisense kG*kT*dG*d[5mC]*dT*dT*dT*dG*dG*dA*dA*eG*kA*eT*k[5mC]*eT) [Compound 1198494]  15 % UTC
2. 1198493 (antisense kT*kG*d[5mC]*dT*dT*dT*dG*dG*dA*dA*dG*eA*kT*e[5mC]*kT*eG) [Compound 1198493]  28 % UTC

Same assay, conditions: Table 45; Yap1 mRNA as percent of untreated control, SNU-449 cells, single dose

In order of falling “YAP1 (% UTC)” value:
1. 1198967 (kT*kA*dA*dG*dG*dT*dT*dT*d[5mC]*d[5mC]*d[5mC]*kA*dG*kA*dT*kT; antisense) [Compound 1198967]  65 % UTC
2. 1198968 (kA*kG*dT*dA*dA*dG*dG*dT*dT*dT*d[5mC]*k[5mC]*d[5mC]*kA*dG*kA; antisense) [Compound 1198968]  57 % UTC
3. 1198895 (kG*kG*dA*dA*dA*dT*dT*dG*dT*d[5mC]*dT*k[5mC]*dA*kT*dG*k[5mC]; antisense) [Compound 1198895]  22 % UTC

Same assay, conditions: Table 46; Yap1 mRNA as percent of untreated control, SNU-449 cells, single dose

In order of rising “YAP1 (% UT)” value:
1. 1198852 (kT*k[5mC]*dA*dG*dA*dT*dT*dT*dA*dG*dG*kA*eT*kG*e[5mC]*kA; antisense) [Compound 1198852]  41 % UT
2. 1198837 (kT*kT*dG*dG*dA*dA*dG*dA*dT*d[5mC]*dT*kG*eA*kA*eA*k[5mC]; antisense) [Compound 1198837]  66 % UT

Same assay, conditions: Table 48; Yap1 mRNA level relative to untreated control; modified oligonucleotides targeting SEQ ID NO.: 1 and 2

In order of rising “YAP1 (% UT)” value:
1. 1198284 (kT*kG*kT*d[5mC]*dT*d[5mC]*dA*dT*dG*d[5mC]*d[5mC]*dT*kT*eA*kT*eA; antisense) [Compound 1198284]  27 % UT
2. 1198311 (k[5mC]*kA*k[5mC]*dT*dT*dT*dT*dA*d[5mC]*dA*dT*dT*kA*eG*kG*eA; antisense) [Compound 1198311]  39 % UT
3. 1198301 (kT*k[5mC]*kT*dA*dT*dA*dT*dT*dA*dG*dA*dG*kT*eA*kT*eG; antisense) [Compound 1198301]  43 % UT
4. 1198317 (kT*kT*kG*dG*dA*dA*dG*dA*dT*d[5mC]*dT*dG*kA*eA*kA*e[5mC]; antisense) [Compound 1198317]  74 % UT

Same assay, conditions: Table 49; Yap1 mRNA level relative to untreated control; modified oligonucleotides targeting SEQ ID NO.: 1 and 2

In order of falling “YAP1 (% UT)” value:
1. 1198359 (k[5mC]*kT*kT*dT*dA*dA*dA*dG*dT*dG*dT*dA*kT*eG*kT*e[5mC]; antisense) [Compound 1198359]  28 % UT
2. 1095565 (antisense kT*kG*kA*dG*dG*dT*dA*dT*dA*dA*d[5mC]*dT*kG*eG*kG*e[5mC]) [Compound 1095565]  25 % UT

Same assay, conditions: Table 50; Yap1 mRNA remaining as percent of untreated control (UT), SNU-449 cells, single dose

In order of falling “YAP1 (% UT)” value:
1. 1198603 (antisense kA*kA*kT*dA*dT*dT*dG*d[5mC]*dA*dA*dT*d[5mC]*kT*kG*kT*e[5mC]) [Compound 1198603]  51 % UT
2. 1198601 (antisense kA*kT*kT*dG*d[5mC]*dA*dA*dT*d[5mC]*dT*dG*dT*k[5mC]*kT*kG*eA) [Compound 1198601]  50 % UT
3. 1198588 (antisense kA*kG*kA*dT*dT*dT*dA*dG*dG*dA*dT*dG*k[5mC]*kA*kT*eG) [Compound 1198588]  32 % UT
4. 1197294 (kG*k[5mC]*kA*d[5mC]*mU*dT*dT*dT*dA*d[5mC]*dA*dT*dT*kA*kG*kG; antisense) [Compound 1197294]  25 % UT

Same assay, conditions: Table 51; Yap1 mRNA remaining as percent of untreated control (UT), SNU-449 cells, single dose

In order of rising “YAP1 (% UT)” value:
1. 1197270 (kT*kT*kA*dA*mA*dG*dT*dG*dT*dA*dT*dG*dT*k[5mC]*kA*kG) [Compound 1197270]  2 % UT
2. 1197313 (kA*kG*kT*dG*mU*dA*dT*dG*dT*d[5mC]*dA*dG*dA*kA*kG*kA; antisense) [Compound 1197313]  8 % UT
3. 1197275 (kA*kA*kG*dT*mA*dA*dG*dG*dT*dT*dT*d[5mC]*d[5mC]*k[5mC]*kA*kG) [Compound 1197275]  30 % UT
4. 1197276 (k[5mC]*kT*kA*dA*mG*dT*dA*dA*dG*dG*dT*dT*dT*k[5mC]*k[5mC]*k[5mC]; antisense) [Compound 1197276]  44 % UT
5. 1197240 (antisense k[5mC]*kT*kG*dA*mG*dG*dT*dA*dT*dA*dA*d[5mC]*dT*kG*kG*kG) [Compound 1197240]  58 % UT
6. 1197248 (antisense kT*kT*kA*dA*mG*d[5mC]*dA*d[5mC]*dT*dT*dT*dT*dA*k[5mC]*kA*kT) [Compound 1197248]  75 % UT
7. 1197262 (A_{ks}A_{ks}^{m}C_{ks}T_{ds}C_{ys}T_{ds}T_{ds}A_{ds}T_{ds}A_{ds}T_{ds}G_{ds}G_{ds}T_{ks}T_{ks}T_{k}; as printed in the source, key not given here) [Compound 1197262]  89 % UT

Same assay, conditions: Table 52; Yap1 mRNA, modified oligonucleotides targeting SEQ ID NO: 1 and 2

In order of rising “YAP1 (% UT)” value:
1. 1200816 (kG*k[5mC]*kA*d[5mC]*dT*mU*dT*dT*dA*d[5mC]*dA*dT*dT*kA*kG*kG; antisense) [Compound 1200816]  37 % UT
2. 1200866 (kA*kG*kT*dA*dA*mG*dG*dT*dT*dT*d[5mC]*d[5mC]*d[5mC]*kA*kG*kA; antisense) [Compound 1200866]  41 % UT
3. 1200791 (kA*kT*kG*dG*dA*mA*dA*dT*dT*dG*dT*d[5mC]*dT*k[5mC]*kA*kT; antisense) [Compound 1200791]  46 % UT
4. 1200855 (kT*kT*kT*dA*dT*mG*dT*dA*dA*dT*dA*dT*dT*kG*k[5mC]*kA; antisense) [Compound 1200855]  56 % UT

Same assay, conditions: Yap1 mRNA, percent of untreated control; modified oligonucleotides targeting SEQ ID NO: 1 and 2; Table 47

In order of falling “YAP1 (% UT)” value:
1. 1197222 (antisense kA*kA*kG*dT*dA*dA*dG*dG*dT*dT*dT*d[5mC]*d[5mC]*k[5mC]*kA*kG) [Compound 1197222]  40 % UT
2. 1198859 (kA*k[5mC]*dT*d[5mC]*dT*dT*dA*dT*dA*dT*dG*kG*eT*kT*eT*kT; antisense) [Compound 1198859]  33 % UT
3. 1197224 (antisense kA*k[5mC]*kT*dA*dA*dG*dT*dA*dA*dG*dG*dT*dT*kT*k[5mC]*k[5mC]) [Compound 1197224]  24 % UT

From US11214803B2, “Modulators of YAP1 expression” (Ionis Pharmaceuticals, Inc., priority 2019, dated 2022)
